Where two headings read alike, the source gives them in different places.
Tests used:
Assay type in all cases: cell-based
CFTR ΔF508 = target: T1, CFTR ΔF508 (Homo sapiens, UniProt P13569, DEL508-508); assay: Chronic TECC assay, primary bronchial epithelial cells of CF patients homozygous for CFTR ΔF508 (corrector, co-corrector and potentiator); conditions: chronic TECC
T1 construct: bronchial epithelial cells isolated from CF patients homozygous for the CFTR ΔF508 mutation; McGill University; Asterand; University of North Carolina hAEC-CF; host or cells: primary human bronchial epithelial cells from CF patients homozygous for ΔF508, differentiated at air-liquid interface
Procedure: Primary Bronchial Epithelial Cells Protocol
The TECC (Tranepithelial Clamp Circuit, EP-design) assay measures the functionality of the cystic fibrosis Transmembrane Conductance regulator (CFTR) by measuring the short circuit current (Isc) generated over the basolateral and apical membrane of lung epithelial cells. In TECC the transepithelial potential PD and transepithelial resistance (Rt) are measured in an open circuit and transformed to Ieq using Ohm's law. 24 Wells can be measured simultaneously allowing a higher throughput compared to Ussing chambers.
For this purpose, bronchial epithelial cells isolated from CF patients homozygous for the CFTR ΔF508 mutation (hAEC-CF, Epithelix, Geneva, Switzerland; McGill University, Montreal, Qc; Asterand, Detroit, Mich.; University of North Carolina, Chapel Hill, N.C.) are plated on type IV collagen-coated Transwell® supports (Costar).
For electrophysiological recording of the “chronic” experiments, the human airway epithelia are mounted in the TECC heating plate for electrophysiological measurement and kept at 37° C. The epithelia are bathed in a NaCl-Ringer solution (120 mM NaCl, 25 mM NaHCO3, 1.2 mM CaCl2, 1.2 mM MgCl2, 0.8 mM KH2PO4, 0.8 mM K2HPO4, pH 7.4, 5 mM glucose) on both the basolateral and apical sides. Test compounds (corrector, co-corrector, 4-[(2R,4R)-4-({[1-(2,2-difluoro-1,3-benzodioxol-5-yl)cyclopropyl]carbonyl}amino)-7-(difluoromethoxy)-3,4-dihydro-2H-chromen-2-yl]benzoic acid, and potentiator, N-(3-carbamoyl-5,5,7,7-tetramethyl-4,7-dihydro-5H-thieno[2,3-c]pyran-2-yl)-1H-pyrazole-5-carboxamide), are re-added to the recording solution prior to measurement. […] Apical amiloride is used to inhibit the endogenous ENaC currents while forskolin is applied on both apical and basolateral side to stimulate CFTR. Measurements are done during a 20 minute timeframe with recordings every 2 minutes. The increase in Ieq is used as a measure for the increased CFTR activity, EC50 values can be generated by measuring impact of different concentrations of compound on Ieq on primary cells, for this purpose each transwell is treated with a different compound concentration. […] Raw data were normalized to percentage activity values using the equation: 100×(Sample−Negative control)/(Positive control−Negative Control).

ΔF508-CFTR [1] = target: T2, ΔF508-CFTR (Homo sapiens, UniProt P13569, DEL508-508); assay: CFTR cell surface levels using HRP-tagged ΔF508-CFTR expressing CFBE cells, in the presence of a co-corrector; conditions: HRP-tagged ΔF508-CFTR CFBE cells, in the presence of 3 μM co-corrector; for EC50: read-out: EC50
T2 construct: host or cells: CFBE41o-, doxycycline-inducible
Summary of the method: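 Chemiluminescent read-out of surface HRP (15 min, dark) after PBS washes. Activity is normalized as 100×(sample−DMSO)/(3 μM co-corrector alone−DMSO).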

ΔF508-CFTR [2] = target: T2, ΔF508-CFTR; assay: CFTR cell surface levels using HRP-tagged ΔF508-CFTR expressing CFBE cells, intrinsic corrector capacity; set-up: % Activation: concentration or dose not given beside the values; conditions: HRP-tagged ΔF508-CFTR expressing CFBE41o- cells, compound alone (intrinsic corrector capacity), 20 hours at 33° C.; for EC50: read-out: EC50
Summary of the method: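 Read-out: chemiluminescent HRP activity of ECL4-HRP-tagged ΔF508-CFTR at the cell surface, 15 min substrate in dark. Normalized as 100×(sample−DMSO)/(positive control−DMSO).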

[3] = Ieq = calculations based on the maximum current, read-out: EC50 (nM) (Ieq*)
[4] = test compound at 1 μM, Ieq = calculations based on the maximum current

T1 sequence (P13569 with tags, fused parts or gaps DEL508-508): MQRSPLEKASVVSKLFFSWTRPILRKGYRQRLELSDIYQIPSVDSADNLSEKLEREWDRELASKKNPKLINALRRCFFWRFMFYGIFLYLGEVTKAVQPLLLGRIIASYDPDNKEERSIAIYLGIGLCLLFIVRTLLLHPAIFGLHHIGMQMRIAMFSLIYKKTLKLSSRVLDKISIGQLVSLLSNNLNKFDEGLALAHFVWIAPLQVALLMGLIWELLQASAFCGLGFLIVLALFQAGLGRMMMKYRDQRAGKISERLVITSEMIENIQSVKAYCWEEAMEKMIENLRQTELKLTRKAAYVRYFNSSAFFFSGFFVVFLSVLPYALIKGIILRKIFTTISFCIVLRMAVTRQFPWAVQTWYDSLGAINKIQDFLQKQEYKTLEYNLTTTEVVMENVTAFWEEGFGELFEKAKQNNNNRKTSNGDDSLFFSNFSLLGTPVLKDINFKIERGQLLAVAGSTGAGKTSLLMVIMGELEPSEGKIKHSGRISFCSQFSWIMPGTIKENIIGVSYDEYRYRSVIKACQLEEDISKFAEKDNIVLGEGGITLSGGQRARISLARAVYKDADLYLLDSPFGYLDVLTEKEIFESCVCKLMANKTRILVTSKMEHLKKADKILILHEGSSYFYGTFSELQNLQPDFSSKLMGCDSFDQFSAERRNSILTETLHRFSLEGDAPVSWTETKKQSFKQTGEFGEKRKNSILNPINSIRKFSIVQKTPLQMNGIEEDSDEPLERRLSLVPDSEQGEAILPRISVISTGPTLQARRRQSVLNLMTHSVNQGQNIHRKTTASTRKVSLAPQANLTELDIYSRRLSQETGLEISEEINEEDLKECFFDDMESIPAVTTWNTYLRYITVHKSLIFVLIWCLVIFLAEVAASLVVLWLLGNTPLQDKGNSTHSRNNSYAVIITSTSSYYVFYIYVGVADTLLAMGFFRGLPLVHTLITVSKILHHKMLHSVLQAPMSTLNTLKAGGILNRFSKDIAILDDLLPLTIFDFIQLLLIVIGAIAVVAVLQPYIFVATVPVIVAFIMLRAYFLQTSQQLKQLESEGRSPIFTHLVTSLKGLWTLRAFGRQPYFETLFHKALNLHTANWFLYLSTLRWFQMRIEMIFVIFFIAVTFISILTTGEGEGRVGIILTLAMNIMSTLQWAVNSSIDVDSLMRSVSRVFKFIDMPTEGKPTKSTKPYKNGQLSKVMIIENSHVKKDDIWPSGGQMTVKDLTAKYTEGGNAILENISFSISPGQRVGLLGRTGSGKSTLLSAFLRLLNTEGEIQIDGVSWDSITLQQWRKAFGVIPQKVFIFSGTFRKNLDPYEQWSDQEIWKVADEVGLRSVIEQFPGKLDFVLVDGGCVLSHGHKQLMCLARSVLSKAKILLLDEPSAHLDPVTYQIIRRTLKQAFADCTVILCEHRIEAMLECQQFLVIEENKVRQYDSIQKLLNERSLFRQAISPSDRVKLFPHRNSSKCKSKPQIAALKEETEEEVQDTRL
T2 sequence (P13569 with tags, fused parts or gaps DEL508-508): as above

Structure (SMILES) | EC50 (CFTR ΔF508; [3]) [nM] | % Activity at 1 μM (Ieq*) (CFTR ΔF508; [4]) [%] | % Activation (ΔF508-CFTR [1]) [%] | EC50 (ΔF508-CFTR [1]) [nM] | % Activation (ΔF508-CFTR [2]) [%] | EC50 (ΔF508-CFTR [2]) [nM] | EC50 (CFTR ΔF508; AUC = full area under the curve upon forskolin stimulation, read-out: EC50 (nM) (AUC**)) | % Activity at 1 μM (AUC**) (CFTR ΔF508; test compound at 1 μM, AUC = full area under the curve upon forskolin stimulation) [%]
COCCN(C)c1ccc(-c2cc(C(=O)NS(C)(=O)=O)nc3c2c(C(C)C)nn3-c2cccc(N3CCOCC3)c2)cn1 [Compound 86, N-(methanesulfonyl)-4-{6-[(2-methoxyethyl)(methyl)amino]pyridin-3-yl}-1-[3-(morpholin-4-yl)phenyl]-3-(propan-2-yl)-1H-pyrazolo[3,4-b]pyridine-6-carboxamide] | 30 | 210 | 489.56 | 255 | 329.92 | 637 |  | 
CC(C)c1nn(-c2cccc(N3CCOCC3)c2)c2nc(C(=O)NS(C)(=O)=O)cc(-c3ccc(N(C)C4CCOCC4)nc3)c12 [Compound 87, N-(methanesulfonyl)-4-{6-[methyl(oxan-4-yl)amino]pyridin-3-yl}-1-[3-(morpholin-4-yl)phenyl]-3-(propan-2-yl)-1H-pyrazolo[3,4-b]pyridine-6-carboxamide] | < 30 | 150 | 623.62 | 456 | 422.84 | 409 |  | 
CC(C)c1nn(-c2cccc(N(C)C)c2)c2nc(C(=O)NS(C)(=O)=O)cc(-c3cnc(N(C)C4CCOCC4)nc3)c12 [Compound 91, 1-[3-(dimethylamino)phenyl]-N-(methanesulfonyl)-4-{2-[methyl(oxan-4-yl)amino]pyrimidin-5-yl}-3-(propan-2-yl)-1H-pyrazolo[3,4-b]pyridine-6-carboxamide] | < 30 | 250 | 619.45 | 891 | 388.15 | 382 |  | 
CC1CN(c2ccc(-c3cc(C(=O)NS(C)(=O)=O)nc4c3c(C(C)C)nn4C3CCCCC3)cn2)CC(C)O1 (stereo not drawn) [Compound 93, 1-cyclohexyl-4-[6-(2,6-dimethylmorpholin-4-yl)pyridin-3-yl]-N-(methanesulfonyl)-3-(propan-2-yl)-1H-pyrazolo[3,4-b]pyridine-6-carboxamide] | < 30 | 220 | 456.5 | 270 | 224.23 | 501 |  | 
CC(C)c1nn(-c2cccc(N(C)C)c2)c2nc(C(=O)NS(C)(=O)=O)cc(-c3cnc(N4CCC(C#N)CC4)nc3)c12 [Compound 95, 4-[2-(4-cyanopiperidin-1-yl)pyrimidin-5-yl]-1-[3-(dimethylamino)phenyl]-N-(methanesulfonyl)-3-(propan-2-yl)-1H-pyrazolo[3,4-b]pyridine-6-carboxamide] | 10 | 180 | 611.7 | 649 | 355.6 | 838 |  | 
CC(C)c1nn(-c2cccc(N(C)C)c2)c2nc(C(=O)NS(C)(=O)=O)cc(-c3ccc(N(C)C4CCOCC4)cc3)c12 [Compound 96, 1-[3-(dimethylamino)phenyl]-N-(methanesulfonyl)-4-{4-[methyl(oxan-4-yl)amino]phenyl}-3-(propan-2-yl)-1H-pyrazolo[3,4-b]pyridine-6-carboxamide] | < 30 | 310 | 707.5 | 473 | 406.6 | 367 |  | 
CC(C)c1nn(-c2cccc(N3CCCC3)c2)c2nc(C(=O)NS(C)(=O)=O)cc(-c3ccc(N(C)C4CCOCC4)cc3)c12 [Compound 110, N-(methanesulfonyl)-4-{4-[methyl(oxan-4-yl)amino]phenyl}-3-(propan-2-yl)-1-[3-(pyrrolidin-1-yl)phenyl]-1H-pyrazolo[3,4-b]pyridine-6-carboxamide] | < 30 | 170 | 665.7 | 336 | 451.8 | 358 |  | 
CCS(=O)(=O)NC(=O)c1cc(-c2ccc(N3CCOCC3)cc2)c2c(C)nn(-c3ccc(F)cc3F)c2n1 [Compound 113, 1-(2,4-difluorophenyl)-N-(ethanesulfonyl)-3-methyl-4-[4-(morpholin-4-yl)phenyl]-1H-pyrazolo[3,4-b]pyridine-6-carboxamide] | 32 | 310 | 455.63 | 235 | 262.33 | 464 |  | 
COC1CCN(c2cc(C(=O)NS(C)(=O)=O)nc3c2c(C(C)C)nn3-c2cccc(C)c2)CC1 [Compound 117, N-(methanesulfonyl)-4-(4-methoxypiperidin-1-yl)-1-(3-methylphenyl)-3-(propan-2-yl)-1H-pyrazolo[3,4-b]pyridine-6-carboxamide] | > 1000 | 81 | 417.92 | 200 | 281.88 | 333 |  | 
CC(C)c1nn(C2CCCCC2)c2nc(C(=O)NS(C)(=O)=O)cc(-c3cnc(N4CCC(C#N)CC4)nc3)c12 [Compound 119, 4-[2-(4-cyanopiperidin-1-yl)pyrimidin-5-yl]-1-cyclohexyl-N-(methanesulfonyl)-3-(propan-2-yl)-1H-pyrazolo[3,4-b]pyridine-6-carboxamide] | > 1000 | 157 | 389.93 | 331 | 188.53 | 520 |  | 
COCCN(CCOC)c1ccc(-c2cc(C(=O)NS(C)(=O)=O)nc3c2c(C(C)C)nn3C2CCCCC2)cn1 [Compound 121, 4-{6-[bis(2-methoxyethyl)amino]pyridin-3-yl}-1-cyclohexyl-N-(methanesulfonyl)-3-(propan-2-yl)-1H-pyrazolo[3,4-b]pyridine-6-carboxamide] | 74 | 206 | 368.6 | 282 | 159.13 | 653 |  | 
CC(C)c1nn(-c2cccc(N3CCOCC3)n2)c2nc(C(=O)NS(C)(=O)=O)cc(-c3ccc(N4CCOCC4)cc3)c12 [Compound 128, N-(methanesulfonyl)-4-[4-(morpholin-4-yl)phenyl]-1-[6-(morpholin-4-yl)pyridin-2-yl]-3-(propan-2-yl)-1H-pyrazolo[3,4-b]pyridine-6-carboxamide] | < 30 | 235 | 529.57 | 252 | 357.47 | 516 |  | 
CC(C)c1nn(-c2ccnc(N3CCOCC3)c2)c2nc(C(=O)NS(C)(=O)=O)cc(-c3ccc(N4CCOCC4)cc3)c12 [Compound 136, N-(methanesulfonyl)-4-[4-(morpholin-4-yl)phenyl]-1-[2-(morpholin-4-yl)pyridin-4-yl]-3-(propan-2-yl)-1H-pyrazolo[3,4-b]pyridine-6-carboxamide] |  |  | 428.1 | 72.3 | 262.38 | 155 | 23.5 | 233.2
COCC1CCN(c2cc(C(=O)NS(C)(=O)=O)nc3c2c(C(C)C)nn3-c2cccc(N(C)C)c2)CC1 [Compound 144, 1-[3-(dimethylamino)phenyl]-N-(methanesulfonyl)-4-[4-(methoxymethyl)piperidin-1-yl]-3-(propan-2-yl)-1H-pyrazolo[3,4-b]pyridine-6-carboxamide] | 12 | 350 | 674.7 | 243 | 531.6 | 417 |  | 

Reference: patent publication US10259810B2, “N-sulfonylated pyrazolo[3,4-b]pyridin-6-carboxamides and method of use” (AbbVie S.à.r.l., priority 2015, dated 2019)
